Assay results reported in patent EP0059817A1, “Serpentine, alstonine and sempervirine drugs for the specific inhibition of tumurous and cancerous cells” (priority 1981, dated 1982).
Where two headings read alike, the source gives them in different places.

Legend:
Cellules K.B. = test: cell culture cytotoxicity, cancer cells; assay type: cell-based; settings: 200 µg/ml; en culture de 3 jours dès l'ensemencement
Experimental: (§1) L'effet cytotoxique spécifique, vis-à-vis des cellules tumorales utilisées, ne s'est jamais démenti au cours des très nombreuses expériences effectuées. Par contre, pour effectuer les cellules saines il a fallu des quantités d'alcaloides au moins dix fois plus grandes (plus de 2 mg/ml). (Les cultures de cellules in-vitro sans mycoplàsmes ont été effectuées dans les conditions classiques et en l'absence d'antibiotique qui pourraient fausser les résultats).
(§2) Les cellules cancéreuses et saines utilisées ne contenaient pas de mycoplasmes et le milieu de culture ne contenait pas d'antibiotique, ces derniers pouvant sensibiliser les cellules et par conséquent fausser les résultats.

virus de la grippe = assay type: in vivo, souris SWISS; settings: for activity against influenza compared with sempervirine: doses comparables; for survie (surviving mice/total): 200 µg i.p. twice a day, 8 days
Ascite d'Ehrlich [1] = test: Ehrlich ascites tumour in the mouse, serpentine, alstonine, cyclophosphamide; assay type: in vivo, souris blanches Swiss; settings: voie sous-cutanée, doses as above
Ascite d'Ehrlich [2] = test: as above; assay type: in vivo, souris blanches Swiss; settings: for definitive arrest of the Ehrlich ascites tumour (in words): each substance alone, treatment from day 4 or 5 for 10 to 15 days; for survie (surviving mice/total): I.P., serpentine 400 µg par jour, cyclophosphamide 2 ma par jour; for évolution de la tumeur d'Ehrlich (figure, weight of mice against days of treatment): voie intrapéritonéale, doses as above, curves 2, 3, 4
Text: Activité vis-à-vis des tumeurs "Ascite d'Ehrlich" chez la souris - 5 x 10^3 cellules Ascite d'Ehrlich sont inoculées à des souris blanches Swiss de 20-24 g, par voie intrapéritonéale.
Divers traitements furent appliqués dès le quatrième ou le cinquième jour et pendant dix à quinze jours. […] Un net ralentissement du développement des tumeurs est observé, mais les tumeurs repartent après arrêt du traitement dans le cas du cyclophosphamide seul, le redémarrage peut être plus tardif qu'avec la serpentine ou l'alstonine. Par contre, l'association de serpentine (400 µg par jour) et de cyclophosphamide (2 ma par jour) par voie I.P. permet d'obtenir une survie définitive (survie définitive : survie normale pendant trois mois sans perte de poids) et le pourcentage des survivants varie de 80 à 100% (Tableau IV ci-après). Les souris ainsi guéries augmentent normalement de poids et après quatre à six mois celui-ci est de 24-26 g. Leur aspect est absolument normal et rien ne les distingue de souris saines. (Dans les expériences, seule la survie sans récidive est prise en considération).
La figurer, où sont portés en abscisses le nombre de jours de traitement et en ordonnées le poids (en gramme) des souris, montre l'évolution de la tumeur d'Ehrlich chez les souris traitées, soit par la serpentine seule (courbe 2), soit par le cyclophosphamide seul (courbe 3), soit par la serpentine + cyclophosphamide (courbe 4) par voie intra- péritonéale et aux doses indiquées ci-dessus. […] Aucun de ces deux traitements ne permet d'obtenir une survie.définitive. Par contre, le mélange de serpentine et de cyclophosphamide permet d'obtenir une survie définitive.

[3] = test system: Cellules primaires de reins de singe; test: cell culture cytotoxicity, normal cells; assay type: cell-based; settings: 200 µg/ml; en culture de 7 jours dès l'ensemencement
Experimental: Des cultures de cellules saines (cellules primaires de reins de singe, cellules de lignée "Vero" et "SIRC") et des cultures de cellules cancéreuses (cellules K.B., cellules Hela, cellules Hep II et cellules L)ont reçu une dose de 200 Mg, soit de serpentine, soit d'alstonine, soit de sempervirine, par ml de culture.
as §1, §2

lymphome YC 8 [4] = test: lymphoma YC 8 of the mouse, alstonine and cyclophosphamide; assay type: in vivo, souris BALB C; settings: for survie (surviving mice/total): i.p., alstonine 400 µg par jour, 8 days from day 3, mixture with 2 mg cyclophosphamide
tumeur MS 301 = test: transplantable mammary cancer of the mouse; assay type: in vivo, souris de souche Rh0 III; settings: 400 ^gg at the tumour implantation site, twice a day for 15 days from day 3; n=10; p : 0,01
Text: Action sur le cancer mammaire greffable de la souris • - Vingt souris de 18 à 20g, de souche Rh0 III ont été inoculées, par voie sous-cutanée, par 0,8 " d'un extrait de tumeur MS 301, broyé. Dix souris ont été gardées comme témoins; dix autres vaient, le troisième jour après l'inoculation, 400 ^gg d'alstonine au niveau de l'implantation tumorale, deux fois par jour, pendant quinze- jours. Au seizième jour, les souris étaient anesthésiées et sacrifiées, les tumeurs excisées et pesées. • - La même expérience fut effectuée avec la serpentine au lieu d'alstonine.

lymphome YC 8 [5] = test: lymphoma YC 8 of the mouse, sempervirine; assay type: in vivo, souris BALB c; settings: for survie (surviving mice/total): 10 days from day 2
Text: 34 souris BALB c de 17-20 g sont inoculées par voie intra- péritonéale par […] ascitiques du lymphome YC 8 de la souris fraîchement prélevées et dix souris sont gardées comme témoins.
24 souris sont traitées le deuxième jour après inoculation par la sempervirine dissoute en milieu tamponné (pH 7,65) à raison de deux fois par jour par voie intrapéritonéale (300 µ g par jour) et pendant 10 jours consécutifs.
Les résultats sont présentés dans le tableau IX ci-après et illustrent la survie pendant trois mois des animaux traités. (Une survie de plusieurs jours n'est pas prise en considération).

cellules cancéreuses = test: cell culture cytotoxicity, cancer cells as a group; assay type: cell-based; settings: 200 Mg par ml de culture; en 24 à 48 heures; K.B., Hela, Hep II, L
Experimental: as §1, §2

virus de la vaccine = test system: virus de la vaccine; design: species or system lapin; settings: in vivo
cellules saines = test: cell culture cytotoxicity, healthy cells as a group; assay type: cell-based; settings: 200 Mg par ml de culture; au bout de huit jours d'observation; reins de singe, Vero, SIRC
Experimental: as §1, §2

Ascite d'Ehrlich [6] = test: Ehrlich ascites tumour in the mouse, sempervirine; assay type: in vivo, souris BALB c; settings: for survie (surviving mice/total): i.p. 300 µg par jour in two doses, 10 days from day 2
Text: Les résultats sont présentés dans le tableau X ci-après et illustrent la survie des animaux pendant trois mois, une survie de plusieurs jours n'étant pas prise en considération.

cancers du sein = test: clinical trials in humans, breast cancer cases; assay type: in vivo, humains
Text: Toutefois, on a pu constater au cours des essais cliniques sur l'humain que les β-carbolines quaternaires avaient une demi-vie trop courte pour être administrée sous forme galénique mais que, de façon surprenante, on obtenait d'excellents résultats dans le traitement des cancers chez les humains en utilisant une nouvelle forme galénique constituée de microgranules à libération prolongée des p-carbolines quaternaires. Ces microgranules comprennent une âme neutre constituée d'un grain excipient inerte par exemple un ou plusieurs constituants tels que le sacchorose, l'amidon, le talc, la silice désséchante, le lactose et l'acide stéarique, le grain neutre étant muni d'une première couche comprenant la β-carboline quaternaire puis d'une seconde couche extérieure constituée par une enveloppe microporeuse comprenant au moins un polymère naturel et/ou synthétique appartenant à la classe constituée par la gomme laque, la qomme arabique, la gélatine, l'éthylcellulose, l'acétophtalate d2 cellulose, le triacétate de cellulose, le polyoxyéthylèneglycol, les méthacrylates, le copolymère styrène-acrylonitrile et la polyvinylpyrrolidone.
A titre d'exemple, on a reproduit ci-après trois cas significatifs relatifs à.des cancers du sein et pour lesquels on a utilisée la serpentine préparéeselon la nouvelle forme galénique objet de l'invention décrite ci-dessus.

COC(=O)C1=CO[C@@H](C)[C@@H]2Cn3ccc4c5ccccc5nc-4c3C[C@H]12 [alstonine]
destruction des cellules (Cellules K.B.): Destruction totale en 24-48 heures
activity against influenza compared with sempervirine (virus de la grippe): résultats tout à fait comparables
survie and tumour evolution (in words) (Ascite d'Ehrlich [1]): sans effet sur la survie définitive des souris
definitive arrest of the Ehrlich ascites tumour (in words) (Ascite d'Ehrlich [2]): ne peuvent définitivement arrêter la tumeur ascitique d'Ehrlich
destruction des cellules [3]: Pas de destruction pendant 8 jours
survie (in words) (lymphome YC 8 [4]; alstonine seule, same doses, voie sous-cutanée): ne survivent pas plus longtemps que les souris témoins
survie (surviving mice/total) (lymphome YC 8 [4]; day 0): 10/10
survie (surviving mice/total) (lymphome YC 8 [4]; day 22): 7/10
survie (surviving mice/total) (lymphome YC 8 [4]; day 60): 4/10
survie (surviving mice/total) (lymphome YC 8 [4]; day 90): 4/10
POIDS MOYEN (en grammes) DES TUMEURS, AU 16è JOUR (tumeur MS 301): 1,7 (compris entre 0,8 et 2,6) grammes

O=P1(N(CCCl)CCCl)NCCCO1 (centres unmarked) [cyclophosphamide]
amaigrissement of the treated mouse (Ascite d'Ehrlich [2]; cyclophosphamide seul, i.p.): amaigrissement très fort
survie (surviving mice/total) (Ascite d'Ehrlich [2]; day 0): 6/6
survie (surviving mice/total) (Ascite d'Ehrlich [2]; day 25): 6/6
survie (surviving mice/total) (Ascite d'Ehrlich [2]; day 35): 6/6
survie (surviving mice/total) (Ascite d'Ehrlich [2]; day 60): 2/6
survie (surviving mice/total) (Ascite d'Ehrlich [2]; day 120): 0/6
definitive arrest of the Ehrlich ascites tumour (in words) (Ascite d'Ehrlich [2]): ne peuvent définitivement arrêter la tumeur ascitique d'Ehrlich
évolution de la tumeur d'Ehrlich (figure, weight of mice against days of treatment) (Ascite d'Ehrlich [2]): net ralentissement du poids des tumeurs
outcome with cyclophosphamide alone (in words) (lymphome YC 8 [4]; cyclophosphamide seul): après 1-3 mois, l'amaigrissement est tel qu'elles meurent

c1ccc2c3ccn4cc5c(cc4c-3nc2c1)CCCC5 [sempervirine]
destruction des cellules (Cellules K.B.): Destruction totale en 24-48 heures
lung lobes affected by the virus (congestion) (virus de la grippe; […], in controls half of the lobes affected): 0 ou 1 lobe par poumon atteint
survie (surviving mice/total) (virus de la grippe; day 0, Groupe B: treated from inoculation): 10/10
survie (surviving mice/total) (virus de la grippe; day 0, Groupe C: treated from 24 h after inoculation): 10/10
survie (surviving mice/total) (virus de la grippe; day 10, Groupe B: treated from inoculation): 10/10
survie (surviving mice/total) (virus de la grippe; day 10, Groupe C: treated from 24 h after inoculation): 10/10
survie (surviving mice/total) (virus de la grippe; day 16, Groupe B: treated from inoculation): 8/10
survie (surviving mice/total) (virus de la grippe; day 16, Groupe C: treated from 24 h after inoculation): 6/10
survie (surviving mice/total) (lymphome YC 8 [5]; day 0, i.p. 300 µg par jour in two doses): 24/24
survie (surviving mice/total) (lymphome YC 8 [5]; day 20, i.p. 300 µ g par jour in two doses): 24/24
survie (surviving mice/total) (lymphome YC 8 [5]; day 60, i.p. 300 µg par jour in two doses): 20/24
survie (surviving mice/total) (lymphome YC 8 [5]; day 90, i.p. 300 µg par jour in two doses): 20/24
state of the surviving mice (lymphome YC 8 [5]; i.p. treated survivors, kept more than three months): tout à fait normales
survie (in words) (lymphome YC 8 [5]; voie sous-cutanée): ne survivent pas très longtemps après les souris témoins
destruction des cellules cancéreuses (cellules cancéreuses): toutes les cellules cancéreuses étaient détruites
appearance of papules (virus de la vaccine): non apparition de papules ou apparition de papules dont la tailla est considérablement diminuée
destruction des cellules saines (cellules saines): aucune destruction des cellules saines
destruction des cellules [3]: Pas de destruction pendant 8 jours
survie (surviving mice/total) (Ascite d'Ehrlich [6]; day 0): 20/20
survie (surviving mice/total) (Ascite d'Ehrlich [6]; day 21): 15/20
survie (surviving mice/total) (Ascite d'Ehrlich [6]; day 60): 10/20
survie (surviving mice/total) (Ascite d'Ehrlich [6]; day 90): 10/20
guérison définitive, proportion of mice (Ascite d'Ehrlich [6]; sempervirine seule, same results in souris blanches SWISS): ~50%

COC(=O)C1=CO[C@@H](C)[C@H]2Cn3ccc4c5ccccc5nc-4c3C[C@H]12 [serpentine]
clinical outcome, case 1 (Madame M.) (cancers du sein; after one month, 100mg en microgranules par jour per os in two doses, after irradiation): régression des deux tumeurs
clinical outcome, case 3 (Madame L.) (cancers du sein; bone metastases, sustained-release microgranules, 6 months of treatment): La fracture du col du fémur se consolide ainsi que disparait la métastase calcanéenne
clinical outcome, case 1 (Madame M.) (cancers du sein; during 6 months of treatment, 100mg en microgranules par jour per os): la tumeur du sein diminue et disparait alors que le squirrhe lui-même régresse considérablement
clinical outcome, case 2 (Madame P.) (cancers du sein; three months, microgranules 100 mg par jour per os in two doses, after radiotherapy and local excision): la douleur qui persistait après l'intervention disparait progressivement et le sein prend un aspect normal et indolore
destruction des cellules (Cellules K.B.): Destruction totale en 24-48 heures
activity against influenza compared with sempervirine (virus de la grippe): résultats tout à fait comparables
survie and tumour evolution (in words) (Ascite d'Ehrlich [1]): sans effet sur la survie définitive des souris
destruction des cellules cancéreuses (cellules cancéreuses): toutes les cellules cancéreuses étaient détruites
destruction des cellules saines (cellules saines): aucune destruction des cellules saines
survie (surviving mice/total) (Ascite d'Ehrlich [2]; day 0): 10/10
survie (surviving mice/total) (Ascite d'Ehrlich [2]; day 25): 10/10
survie (surviving mice/total) (Ascite d'Ehrlich [2]; day 35): 0/10
definitive arrest of the Ehrlich ascites tumour (in words) (Ascite d'Ehrlich [2]): ne peuvent définitivement arrêter la tumeur ascitique d'Ehrlich
évolution de la tumeur d'Ehrlich (figure, weight of mice against days of treatment) (Ascite d'Ehrlich [2]): net ralentissement du poids des tumeurs
destruction des cellules [3]: Pas de destruction pendant 8 jours
POIDS MOYEN (en grammes) DES TUMEURS, AU 16è JOUR (tumeur MS 301): 1,6 (compris entre 0,9 et 2,5) grammes
